The results in this text go back to ChEMBL document CHEMBL1139004, “SAR and inhibitor complex structure determination of a novel class of potent and specific Aurora kinase inhibitors” (Bioorg Med Chem Lett, 2006).

Values after ≈ are worked out from the molar mass of the structure shown.

For one series, the system named is MCF7. The experiment in a line: Antiproliferative activity against MCF7 cell line. The series is classed as functional, cell-based. Particulars: Homo sapiens.
Series [1] can be described thus: Percent of unbound ligand in rat plasma. The series is classed as ADME, organism-based.
Series [2] can be described thus: Aqueous solubility of the compound.
Another series has as its target T1, Aurora kinase A (Homo sapiens, UniProt O14965).
T1 sequence (O14965 whole entry): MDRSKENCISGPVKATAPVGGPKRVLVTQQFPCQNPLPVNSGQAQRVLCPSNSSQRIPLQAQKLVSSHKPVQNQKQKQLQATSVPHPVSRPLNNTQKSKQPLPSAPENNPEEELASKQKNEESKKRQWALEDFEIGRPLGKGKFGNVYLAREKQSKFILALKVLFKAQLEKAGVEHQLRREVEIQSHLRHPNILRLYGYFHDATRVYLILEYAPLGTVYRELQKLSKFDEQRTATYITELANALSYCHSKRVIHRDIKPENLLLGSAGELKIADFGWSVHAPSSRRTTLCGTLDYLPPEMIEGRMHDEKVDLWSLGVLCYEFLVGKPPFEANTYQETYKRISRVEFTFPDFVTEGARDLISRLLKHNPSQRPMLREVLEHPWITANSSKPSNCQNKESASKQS
The series can be described thus: Inhibitory activity against Aurora A.

Series [3] is described as follows: Distribution coefficient of the compound, log D at pH 7.4. The format is physicochemical. The note with it: octanol/water.

The IC50 is the concentration that inhibits the measured activity by half. High values mean weaker potency in that assay, low ones greater potency in that assay. As a reminder, the fraction unbound is free concentration divided by total concentration. Higher therefore signals weak binding. For orientation: solubility means the dissolved amount per volume that the medium holds. Higher therefore signals much dissolved substance. Compound `COc1cc2c(Nc3ccc(NC(=O)c4ccccc4)cc3)ncnc2cc1OCCCN1CCOCC1` showed an IC50 in the series on MCF7 of 198 nM. Also, in series [1], the fraction unbound came out at 0.003. In series [2], this compound showed a solubility of 2.5 µM (≈ 1.28 µg/mL).

Compound `COc1cc2c(Nc3cnc(NC(=O)c4ccc(C)c(Br)c4)nc3)ncnc2cc1OCCCN1CCOCC1` displayed an IC50 against Aurora kinase A of 70 nM.

At Aurora kinase A, `COc1cc2c(Nc3cnc(NC(=O)c4ccncc4)nc3)ncnc2cc1OCCCN1CCOCC1` registered a concentration for half-maximal inhibition (IC50) of 690 nM.

For `COc1cc2c(Nc3cnc(NC(=O)c4cccc(Cl)c4)nc3)ncnc2cc1OCCCN1CCCCC1`, the 50% inhibitory concentration (IC50) at Aurora kinase A came to 0.8 nM; in the series with MCF7, 24 nM. Besides, the concentration in solution in series [2] (solubility) was 3600 µM (≈ 1970 µg/mL).

The compound `CCc1ccc(C(=O)Nc2ncc(Nc3ncnc4cc(OCCCN5CCOCC5)c(OC)cc34)cn2)cc1` displayed a 50% inhibitory concentration (IC50) against Aurora kinase A of 85 nM.

Compound `CCCCC(=O)Nc1ncc(Nc2ncnc3cc(OCCCN4CCOCC4)c(OC)cc23)cn1` had an IC50 on Aurora kinase A of 17 nM.

In the case of `COc1cc2c(Nc3cnc(NC(=O)c4cccc(Cl)c4)nc3)ncnc2cc1OCCCN1CCOCC1`, the IC50 against Aurora kinase A was less than 0.1 nM; with MCF7, 80 nM.

`COc1cc2c(Nc3ncc(NC(=O)c4ccccc4)cn3)ncnc2cc1OCCCN1CCOCC1` had an IC50 against Aurora kinase A of 629 nM.

On Aurora kinase A, `CCCN(CCC)S(=O)(=O)c1ccc(C(=O)Nc2ncc(Nc3ncnc4cc(OCCCN5CCOCC5)c(OC)cc34)cn2)cc1` showed an IC50 of 3900 nM.

For orientation: logD means lipophilicity at a set pH, counting ionised and neutral species. Consider `COc1cc2c(Nc3cnc(NC(=O)c4ccccc4)nc3)ncnc2cc1OCCCN1CCOCC1`, for which the IC50 at Aurora kinase A came out at 3 nM; in the series with MCF7 it was 210 nM. Besides, the log distribution coefficient (logD) in series [3] worked out at 2.7. Further, the fraction unbound in series [1] was determined as 0.045.

With `COc1cc2c(Nc3cnc(NC(=O)c4ccc(F)c(Cl)c4)nc3)ncnc2cc1OCCCN1CCOCC1`, the IC50 against Aurora kinase A was 0.15 nM; in the series on MCF7 it was 20 nM. In addition, the fraction unbound in series [1] amounted to 0.004.

In series [2], `COc1cc2c(Nc3cnc(NC(=O)c4ccccc4)nc3)ncnc2cc1OC[C@@H](O)CN1CCCCC1` registered a solubility of 1500 µM (≈ 794 µg/mL).

Turning to `COc1cc2ncnc(Nc3ccc(NC(=O)c4ccccc4)cc3)c2cc1OC` [ANILINOQUINAZOLINE1], the IC50 at Aurora kinase A amounted to 393 nM; in the series on MCF7, 1250 nM. In series [3], the log distribution coefficient (logD) turned out to be 3.7.
